{"source": "patent US20020064511A1", "about": "“Water-soluble polymers for the reduction of dietary phosphate or oxalate absorption” (priority 1996, published 2002)", "assay": "Complexation of phosphate in NaH2PO4 solution, Centricon 30 filtrate phosphorus by ICP", "format": "binding", "description": "In each of four tubes, 0.54 mL of this solution (0.19 mmol of monomer units) were mixed with 10 mL of 0.0207 M NaH2PO4 and appropriate amounts of HCl and NaOH to make solutions of pH 3, pH 4.5, pH 6, and pH 7.5. Tubes with the same pH were also prepared with 10 mL of 0.0207 M NaH2PO4and 0.50 mL of 1.5 M CaCO, (0.749 mmol). Control tubes were also prepared with the sodium phosphate solution and the adjustment of pH. All tubes were diluted to 12 mL with water. The tubes were agitated for one hour. The solutions were then placed in separate Centricon™ 30 molecular weight cutoff tubes and centrifuged for 30 minutes. The filtrate collected was analyzed for phosphorus by inductively coupled plasma spectroscopy.\nIn each of four tubes, 0.67 mL of this solution (0.18 mmol of monomer units) were mixed with 10 mL of 0.0207 M NaH2PO4 and appropriate amounts of HCl and NaOH to make solutions of pH 3, pH 4.5, pH 6, and pH 7.5. Tubes with the same pH were also prepared with 10 mL of 0.0207 M NaH2PO4 and 0.50 mL of 1.5 M CaCO3 (0.749 mmol). Control tubes were also prepared with the sodium phosphate solution and the adjustment of pH. All tubes were diluted to 12 mL with water. The tubes were agitated for one hour. The solutions were then placed in separate Centricon™ 30 molecular weight cutoff tubes and centrifuged for 30 minutes. The filtrate collected was analyzed for phosphorus by inductively coupled plasma spectroscopy.", "data": [{"smiles": "O=C([O-])[O-].[Ca+2]", "note": "[calcium carbonate]", "values": [{"measurement": "phosphorus removed", "setting": "pH 3, 10 mL 0.0207 M NaH2PO4, one hour", "result": 16, "unit": "%"}, {"measurement": "phosphorus removed", "setting": "pH 4.5, 10 mL 0.0207 M NaH2PO4, one hour", "result": 13, "unit": "%"}, {"measurement": "phosphorus removed", "setting": "pH 6, 10 mL 0.0207 M NaH2PO4, one hour", "result": 9, "unit": "%"}, {"measurement": "phosphorus removed", "setting": "pH 7.5, 10 mL 0.0207 M NaH2PO4, one hour", "result": 7, "unit": "%"}]}]}
